Assay: xn = mol fraction of the nth substance listed
Conditions: Fluid (supercritical or subcritical phases), Constant-volume piezometry

FC(F)C(F)(F)F [pentafluoroethane] + FCF
Conditions	mass density [kg/m3]
258.15 K, 2177 kPa, x2 = 0.3004	1342.88
258.16 K, 1554.4 kPa, x2 = 0.4995	1294.18
258.16 K, 4595.6 kPa, x2 = 0	1403.78
259.14 K, 2658.3 kPa, x2 = 0.6995	1234.39
259.15 K, 2403.7 kPa, x2 = 0.4995	1294.07
259.15 K, 2913.1 kPa, x2 = 0.3004	1342.77
261.15 K, 3061.1 kPa, x2 = 0.8997	1151.87
261.15 K, 4118.3 kPa, x2 = 0.4995	1293.85
261.15 K, 4474.9 kPa, x2 = 0.3004	1342.56
261.15 K, 4516.2 kPa, x2 = 0.6995	1234.17
261.15 K, 6579.8 kPa, x2 = 0	1403.47
262.14 K, 4056 kPa, x2 = 0.8997	1151.77
262.14 K, 7284.6 kPa, x2 = 0	1403.36
263.15 K, 5058.3 kPa, x2 = 0.8997	1151.67
263.15 K, 5848.5 kPa, x2 = 0.4995	1293.64
263.15 K, 6106.3 kPa, x2 = 0.3004	1342.34
263.15 K, 6362.9 kPa, x2 = 0.6995	1233.97
264.15 K, 3235.2 kPa, x2 = 0.098	1362.36
264.15 K, 6053.5 kPa, x2 = 0.8997	1151.57
264.15 K, 7288.1 kPa, x2 = 0.6995	1233.88
265.15 K, 7050.9 kPa, x2 = 0.8997	1151.47
265.15 K, 7767 kPa, x2 = 0.3004	1342.13
265.15 K, 8213.6 kPa, x2 = 0.6995	1233.78
265.17 K, 7585.9 kPa, x2 = 0.4995	1293.43
267.15 K, 9040.9 kPa, x2 = 0.8997	1151.28
267.15 K, 9274.4 kPa, x2 = 0.4995	1293.23
267.15 K, 10051 kPa, x2 = 0.6995	1233.58
267.16 K, 5301.3 kPa, x2 = 0.098	1362.04
267.16 K, 9382.9 kPa, x2 = 0.3004	1341.92
267.16 K, 10809 kPa, x2 = 0	1402.84
268.15 K, 10032 kPa, x2 = 0.8997	1151.19
268.2 K, 10152 kPa, x2 = 0.4995	1293.13
269.14 K, 10950 kPa, x2 = 0.4995	1293.04
269.15 K, 10983 kPa, x2 = 0.3004	1341.71
269.15 K, 11894 kPa, x2 = 0.6995	1233.38
269.16 K, 11031 kPa, x2 = 0.8997	1151.09
270.15 K, 7414.4 kPa, x2 = 0.098	1361.73
270.19 K, 13003 kPa, x2 = 0	1402.53
271.13 K, 12647 kPa, x2 = 0.4995	1292.84
271.15 K, 13008 kPa, x2 = 0.8997	1150.92
271.16 K, 13740 kPa, x2 = 0.6995	1233.2
273.08 K, 14311 kPa, x2 = 0.4995	1292.65
273.15 K, 9532.7 kPa, x2 = 0.098	1361.42
273.15 K, 14255 kPa, x2 = 0.3004	1341.32
273.15 K, 14990 kPa, x2 = 0.8997	1150.74
273.15 K, 15076 kPa, x2 = 0	1402.23
273.16 K, 15579 kPa, x2 = 0.6995	1233.01
274.14 K, 15969 kPa, x2 = 0.8997	1150.66
274.16 K, 16499 kPa, x2 = 0.6995	1232.92
275.13 K, 16066 kPa, x2 = 0.4995	1292.46
275.15 K, 16572 kPa, x2 = 0	1402.04
282.15 K, 15978 kPa, x2 = 0.098	1360.53
313.13 K, 2217.5 kPa, x2 = 0.3003	1050.39
313.15 K, 2820.6 kPa, x2 = 0.1	1097.54
318.14 K, 2959 kPa, x2 = 0.8992	900.95
318.15 K, 2921.8 kPa, x2 = 0.6998	949.66
318.15 K, 4528.5 kPa, x2 = 0.1	1097.17
318.18 K, 3901.3 kPa, x2 = 0.3003	1050.03
318.21 K, 3341.8 kPa, x2 = 0.4993	1000.3
323.13 K, 5212.3 kPa, x2 = 0.8992	900.63
323.14 K, 4867 kPa, x2 = 0.6998	949.34
323.15 K, 5129.3 kPa, x2 = 0.4993	999.96
323.16 K, 5645.9 kPa, x2 = 0.3003	1049.68
323.16 K, 6252.9 kPa, x2 = 0.1	1096.79
328.14 K, 6839.9 kPa, x2 = 0.6998	949.01
328.15 K, 7408.9 kPa, x2 = 0.3003	1049.33
328.15 K, 7986 kPa, x2 = 0.1	1096.43
328.16 K, 6969.7 kPa, x2 = 0.4993	999.62
328.16 K, 7509.2 kPa, x2 = 0.8992	900.31
333.13 K, 8834 kPa, x2 = 0.6998	948.69
333.13 K, 9793.4 kPa, x2 = 0.8992	900.01
333.14 K, 9188.4 kPa, x2 = 0.3003	1048.98
333.15 K, 8814.5 kPa, x2 = 0.4993	999.29
333.17 K, 9741.9 kPa, x2 = 0.1	1096.06
338.12 K, 12100 kPa, x2 = 0.8992	899.7
338.13 K, 10843 kPa, x2 = 0.6998	948.37
338.13 K, 10979 kPa, x2 = 0.3003	1048.63
338.14 K, 11489 kPa, x2 = 0.1	1095.7
338.19 K, 10690 kPa, x2 = 0.4993	998.95
343.12 K, 12860 kPa, x2 = 0.6998	948.05
343.12 K, 14419 kPa, x2 = 0.8992	899.4
343.13 K, 12772 kPa, x2 = 0.3003	1048.29
343.13 K, 13247 kPa, x2 = 0.1	1095.35
343.18 K, 12550 kPa, x2 = 0.4993	998.62
348.12 K, 14887 kPa, x2 = 0.6998	947.74
348.13 K, 16746 kPa, x2 = 0.8992	899.1
348.16 K, 14423 kPa, x2 = 0.4993	998.3
348.16 K, 15022 kPa, x2 = 0.1	1094.99
348.17 K, 14592 kPa, x2 = 0.3003	1047.95
353.11 K, 16917 kPa, x2 = 0.6998	947.43
353.13 K, 16290 kPa, x2 = 0.4993	997.98
353.14 K, 16386 kPa, x2 = 0.3003	1047.61
353.14 K, 16782 kPa, x2 = 0.1	1094.64
354.13 K, 16744 kPa, x2 = 0.3003	1047.54
354.15 K, 16672 kPa, x2 = 0.4993	997.91

Source: the NIST ThermoML archive (doi:10.1007/s10765-005-8591-6)
